Test results published in patent publication US20090082341A1 (SYNOSIA THERAPEUTICS, priority 2007, published 2009).
Entries after “also recorded” stand apart in the source; their conditions may differ.

Legend:
A2A receptors in the dog = molecular target: T1, A2A receptors in the dog (Canis lupus familiaris, UniProt P11617); assay: Radioligand binding assay, dog A2A receptor (striatal tissue); design: species or system dog (Beagle); conditions: read-out: pKi, dog A2A receptor (converted)
T1 construct: the cortical (dA1) and striatal (dA2A) tissue was dissected and frozen; from tissue; host or cells: Beagle dog brain striatum, membranes
T1 sequence (P11617 whole entry): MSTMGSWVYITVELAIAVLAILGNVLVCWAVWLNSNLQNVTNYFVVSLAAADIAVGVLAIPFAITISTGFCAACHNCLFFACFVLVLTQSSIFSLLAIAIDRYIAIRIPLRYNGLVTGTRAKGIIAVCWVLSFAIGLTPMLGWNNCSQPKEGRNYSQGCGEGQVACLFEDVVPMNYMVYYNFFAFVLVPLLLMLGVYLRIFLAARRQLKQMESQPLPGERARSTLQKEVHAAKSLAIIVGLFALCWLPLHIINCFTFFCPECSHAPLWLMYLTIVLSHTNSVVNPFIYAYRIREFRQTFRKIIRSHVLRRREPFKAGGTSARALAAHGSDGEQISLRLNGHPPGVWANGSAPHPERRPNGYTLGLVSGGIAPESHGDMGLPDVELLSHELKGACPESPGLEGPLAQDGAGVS

human A1 receptor = molecular target: T2, human A1 receptor (Homo sapiens, UniProt P30542); assay: NECA-stimulated Ca2+ flux in hA1-Gα16-CHO cells (FLIPR); assay type: cell-based
T2 sequence (P30542 1-326): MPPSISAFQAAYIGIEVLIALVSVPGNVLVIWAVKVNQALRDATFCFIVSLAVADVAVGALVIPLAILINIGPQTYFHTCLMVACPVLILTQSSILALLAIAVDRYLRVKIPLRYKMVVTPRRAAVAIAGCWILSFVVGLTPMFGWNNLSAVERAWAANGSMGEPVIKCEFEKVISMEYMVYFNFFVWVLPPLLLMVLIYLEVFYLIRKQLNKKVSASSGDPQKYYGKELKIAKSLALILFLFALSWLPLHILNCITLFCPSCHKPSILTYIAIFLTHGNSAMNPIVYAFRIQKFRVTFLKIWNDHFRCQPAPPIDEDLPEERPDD
Procedure: The density of cells was sufficient to yield a confluent monolayer the next day. Hanks balanced salt solution, without phenol red, containing 20 mM HEPES (pH 7.3) and 2.5 mM probenecid (assay buffer) was prepared fresh for each experiment. […] The dye-loading buffer consisted of a final concentration of 2 μM Fluo-4-AM (dissolved in DMSO and pluronic acid) in assay buffer. […] Once dye-loaded, the cells were washed thoroughly on an Embla cell washer with the assay buffer to remove any unincorporated dye. Exactly 100 μl assay buffer was left in each well.
J. Pharm. […] The concentration of agonist that produced a half-maximal response is represented by the EC50 value, the logarithm of which yielded the pEC50 value.

female Wistar rats = assay: Swim stress test; assay type: in vivo, rat; conditions: 3, 10 and 30 mg/kg po; vs controls
Procedure: (§1) The swim stress test relies on the principle that when placed in water, rodents after an initial period of vigorous activity, adopt a characteristic immobile posture making only the minimal movements necessary to stay afloat. A reduction in the time of immobility is considered indicative of potential antidepressant-like properties of a particular drug.
The tricyclic antidepressant desipramine was used as reference drug at 100 mg/kg po. Data are mean±SEM based on 8 animals per group.
as §1, with “activity” for “activity,”, “posture,” for “posture”, “drug (Porsolt R D et al. Behavioural despair in rats: a new model sensitive to antidepressant treatments. Eur. J. Pharmacol. 1978; 47:379-391). […]” for “drug.”
Naïve rats were individually forced to swim inside vertical plexiglass cylinders (height: 40 cm; diameter: 17.5 cm) containing 15 cm of water maintained at 23-24° C. […] They were replaced in the cylinders 24 h later and the total duration of immobility was measured during a 5-min test. […]
Data were analyzed using an unpaired Student's t-test. […]

SMILES: COc1ccc(N2CCOCC2)c2sc(NC(=O)N3CCC(C)(O)CC3)nc12 [4-hydroxy-4-methyl-piperidine-1-carboxylic acid (4-methoxy-7-morpholin-4-yl-benzothiazol-2-yl)-amide]
- Ki (A2A receptors in the dog): 12.6 nM
- Hill slope, hA1 Ca2+ flux (human A1 receptor): 0.7
- IC50 (human A1 receptor; read-out: pIC50, antagonism of NECA-stimulated Ca2+ flux, hA1 (converted)): > 10000 nM
- mean total duration of immobility (female Wistar rats): dose-dependent decrease; also recorded: significantly and dose-dependently decreased
